Reference: publication PMC7938888, “Antidepressant drugs act by directly binding to TRKB neurotrophin receptors” (Cell, 2021)
pKd: −log10 of the molar value. “And” between values parts separate entries of the source, which are not always exact repeats. Equal entries are not always repeated. “Also recorded” adds a separate entry of the source. Where two headings read alike, the source gives them in different places.

Tests used:
[1] = target: T1, GFP-TRKB (Mus musculus, UniProt P15209); assay: Microscale thermophoresis (MST) in lysates of GFP-TRKB expressing HEK293T cells; type: binding; conditions: CHOL 10–100 μM, 15 min, HEK293T cell lysates; read-out: affinity of direct interaction with GFP-TRKB (MST)
T1 construct: wild-type GFP-tagged full length TRKB or the GFP-tagged Y433F TRKB mutant; host or cells: HEK293T
T1 sequence (P15209 32-821): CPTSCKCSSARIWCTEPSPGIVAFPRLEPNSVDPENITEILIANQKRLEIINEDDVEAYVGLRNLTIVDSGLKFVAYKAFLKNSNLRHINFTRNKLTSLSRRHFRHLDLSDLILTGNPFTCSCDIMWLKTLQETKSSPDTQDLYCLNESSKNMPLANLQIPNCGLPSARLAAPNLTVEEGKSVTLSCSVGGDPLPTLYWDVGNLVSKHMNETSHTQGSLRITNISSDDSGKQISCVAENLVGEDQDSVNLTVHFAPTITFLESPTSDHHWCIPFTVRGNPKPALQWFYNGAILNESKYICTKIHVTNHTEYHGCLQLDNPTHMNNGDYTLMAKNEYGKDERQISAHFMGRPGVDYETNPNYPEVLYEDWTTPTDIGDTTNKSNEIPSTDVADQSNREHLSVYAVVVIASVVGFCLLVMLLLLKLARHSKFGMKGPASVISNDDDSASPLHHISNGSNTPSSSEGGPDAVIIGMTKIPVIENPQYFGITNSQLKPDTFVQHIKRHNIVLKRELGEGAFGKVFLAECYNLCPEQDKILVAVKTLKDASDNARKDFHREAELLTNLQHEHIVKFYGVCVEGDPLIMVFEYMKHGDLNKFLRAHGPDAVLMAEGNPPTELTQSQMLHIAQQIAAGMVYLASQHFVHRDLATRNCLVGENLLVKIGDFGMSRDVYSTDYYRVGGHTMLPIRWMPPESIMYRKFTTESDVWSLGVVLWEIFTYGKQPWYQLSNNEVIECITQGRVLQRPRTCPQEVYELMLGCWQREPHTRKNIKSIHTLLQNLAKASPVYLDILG
Method: Microscale Thermophoresis - MST - experiments were performed using Monolith NT.115 (Blue/Red) instrument (NanoTemper Technologies GmbH, Germany). The cell lysates of HEK293T cells expressing GFP-TRKB were used as a source of fluorescently labeled TRKB. HEK293T cells were transfected with GFP-fused TRKB as described and lysed 24h after transfection. […] The lysates of non-transfected HEK293T cells were used to evaluate background fluorescence, which appeared to be undetectable in current MST set up. […] The measurements were done in premium coated capillaries (NanoTemper Technologies GmbH, MO-K025) using LED source with 470nm and 50% infrared-laser power at 25°C. Hill model was used to evaluate binding affinity, each data point represents mean ΔFnorm values from four independent experiments. The bound fraction of the GFP-TRKB was determined and the fitting was performed using the Hill model method incorporated by the MO Affinity Analysis v2.3 software (NanoTemper Technologies).

[2] = test system: TRKB:PLC-γ1 interaction; assay: TRKB:PLC-γ1 interaction ELISA in MG87 cells expressing TRKB; type: cell-based, mouse; conditions: cholesterol 20 μM/15 min
Method: The cell line NIH 3T3 (mouse fibroblasts) stably transfected to express TRKB or TRKA (MG87.TRKB or MG87.TRKA, respectively) were used for in vitro assays ([Antila et al., 2014]), N2A and HEK293T cells were used to overexpress GFP-tagged TRKB for binding assays. The cells were maintained at 5% CO2, 37°C in Dulbecco’s Modified Eagle’s Medium (DMEM, containing 10% fetal calf serum, 1% penicillin/streptomycin, 1% L-glutamine, and, in the case of MG87.TRKB cells, with […] of G418). The cell lines used in the present study were not authenticated or genotyped for sex.
The TRKB:pY (phosphorylated TRKB), TRKB:PLC-γ1, PLC-γ1:pTRKB.Y816 interactions and were determined by ELISA, based on the general method described in literature ([Antila et al., 2014]; [Fred et al., 2019]), with minor adjustments. Briefly, white 96-well plates (OptiPlate 96F-HB, Perkin Elmer) were coated with capturing anti-TRKB or PLC-γ1 antibody (1:1000) in carbonate buffer (pH = 9.8) overnight (ON) at 4°C. Following a blocking step with 2%BSA in TBS-T (2 h, RT), samples were incubated ON at 4°C. […] Finally, the chemiluminescent signal generated by the reaction with ECL was analyzed in a plate reader (Varioskan Flash, Thermo Scientific).

[3] = test system: mice; assay: Ocular dominance plasticity (monocular deprivation, intrinsic signal imaging); type: in vivo, mouse; conditions: adult mice, 10 mg/kg i.p. every second day for 8 days
Method: The “transparent skull” preparation was executed as described in literature ([Steinzeig et al., 2017]). Briefly, adult female mice (20-22 weeks old) were anesthetized via i.p. injection with a mixture containing: 0.05 mg/kg fentanyl (Hameln, Germany); 5 mg/kg midazolam (Hameln, Germany); 0.5 mg/kg medetomidine (Orion Pharma, Finland); diluted in saline (B Braun, Germany). The animals’ eyes were covered with protective-gel (Alcon, UK). The animal’s head was shaved and disinfected with ethanol and Betadine. The mouse head was then fixed on the stereotaxic frame and the temperature was maintained at 37°C. A mixture of lidocaine and adrenaline (Orion Pharma, Finland) was applied locally on the head and the skin was cut with spring scissors. The incision area was restricted 2 mm above the bregma and caudal edge of intraparietal bone. The scalp was removed and a focused air stream and a cotton swab were used to clean and stop bleeding. The periosteum was gently scratched away from the skull with an eye scalpel and the temporal muscles were pushed aside, in order to expose enough space around the area of interest to attach the metal holder. When the skull was smooth, white and dry, fat was removed from the skull rapidly by passing on it a cotton swab soaked in acetone and the air current was used to avoid its penetration into the bone. Then, with a metal stick, a thin layer of cyanoacrylate glue (Loctite 401, Henkel, Germany) was applied to the surface of the skull, in order to make the skull transparent. After waiting 10 minutes for the glue to dry, a first layer of acryl was applied on the skull surface with a brush. Acryl was used to prolong the life of the transparency and was prepared by stirring acrylic powder (EUBECOS, Germany) with methacrylate liquid (Densply, Germany) until a nail-polish consistency was reached. After 30 minutes, a second layer of acryl was applied and was left to dry overnight. Finally, the animals were injected s.c. with 5 mg/kg Carprofen (ScanVet, Nord Ireland) for postoperative analgesia and i.p. with a wake-up composed by: 1.2 mg/kg Naloxone (Orpha-Devel Handels und Vertriebs GmbH, Austria), opioid receptor antagonist; 0.5 mg/kg Flumazenil (Hameln, Germany), GABA-A receptor antagonist; 2.5 mg/kg Atipamezole (Vet Medic animal Health Oy, Finland), adrenergic receptor antagonist; diluted in saline (B Braun, Germany). The next day, isoflurane at 4% was used for a couple of minutes to induce the anesthesia and then it was reduced at 2% for the procedure. The acryl layer was polished only on the area of interest, using a hand drill with a polishing bit. […]
Optical imaging. The saturation of haemoglobin in the primary visual cortex of the right hemisphere was measured to assess cortical activity ([Cang et al., 2005]; [Kalatsky and Stryker, 2003]). […]

[4] = test system: TRKB/TRKA.TM; assay: Cell-free ligand binding assay, chimeric TRKB with TMD of TRKA; conditions: biotinylated fluoxetine
[5] = test system: GluR1 subunit of AMPA receptors; assay: Surface GluR1 ELISA in rat cortical cells; type: cell-based
Method: (§1) Briefly, the MG87.TRKB cells or primary cortical cells from rat or mouse embryos, cultivated in clear bottom 96-well plates (ViewPlate 96, Perkin Elmer), were washed with ice-cold PBS and fixed with 100μl of 4% PFA per well. […] Following washing, the samples were incubated with HRP-conjugated anti-goat or anti-rabbit IgG (1:5000 in blocking buffer) for 1h at RT. The cells were washed 4x with 200μl of PBS for 10 min each. Finally, the chemiluminescent signal generated by reaction with ECL was analyzed in a plate reader.

[6] = test system: GluR1 subunit of AMPA receptors; assay: Surface GluR1 ELISA in cortical cells of TRKB.Y433F mice; type: cell-based, mouse
Method: as §1

[7] = prefrontal cortex, individual mice; for FLX uM**: fluoxetine MW 309g/mol

CC(C)CCC[C@@H](C)[C@H]1CC[C@H]2[C@@H]3CC=C4C[C@@H](O)CC[C@]4(C)[C@H]3CC[C@]12C [CHOL, cholesterol]
pKd [1]: ~4.70 | interaction of TRKB with PLC-γ1 [2]: promoted the interaction of TRKB

CNC1(c2ccccc2Cl)CCCCC1=O (centres unmarked) [KET, ketamine]
shift in ocular dominance after 7-day monocular deprivation [3]: significant shift in OD

CNCCC(Oc1ccc(C(F)(F)F)cc1)c1ccccc1 (centres unmarked) [FLX, fluoxetine]
binding to chimeric TRKB with the TMD of TRKA [4]: failed to bind; also recorded: very low | cell surface localization of GluR1 subunits of AMPA receptors [5]: increased cell surface localization of GluR1 subunits | increase in surface GluR1 in neurons from TRKB.Y433F mutant mice [6]: prevented | FLX ([7]; genotype het, 15mg/kg in drinking water 21 days, 15 mg/kg): 1.368 µg/mL and 0.379 µg/mL and 2.739 µg/mL | FLX ([7]; genotype het, brain density 1.045g/ml): 9.69 µg/mL and 6.28 µg/mL and 21.21 µg/mL | FLX uM** ([7]; genotype het): 31.36 µM and 20.34 µM and 68.63 µM | FLX ug/g wet tissue ([7]; genotype het): 9.273 ug/g wet tissue and 6.013 ug/g wet tissue and 20.292 ug/g wet tissue | FLX ([7]; genotype wt, 15mg/kg in drinking water 21 days, 15 mg/kg): 1.575 µg/mL and 1.642 µg/mL and 1.024 µg/mL and 1.497 µg/mL and 0.393 µg/mL | FLX ([7]; genotype wt, brain density 1.045g/ml): 4.03 µg/mL and 11.14 µg/mL and 6.93 µg/mL and 10.29 µg/mL and 9.31 µg/mL | FLX uM** ([7]; genotype wt): 13.04 µM and 36.06 µM and 22.42 µM and 33.30 µM and 30.13 µM | FLX ug/g wet tissue ([7]; genotype wt): 3.856 ug/g wet tissue and 10.662 ug/g wet tissue and 6.629 ug/g wet tissue and 9.846 ug/g wet tissue and 8.908 ug/g wet tissue
